{
  "source": "patent US20110319346A1",
  "about": "“ELECTROSTATIC PROTEIN/GLUCOSINOLATE COMPLEXES” (NESTEC S.A., priority 2009, published 2011)",
  "key": {"[1]": {"assay": "Emulsifying properties: 10% oil-in-water emulsions, stability to creaming and flocculation", "type": "physicochemical", "conditions": "10% oil-in-water emulsion, pH 4.0, without or with heat treatment", "method": "Emulsifying properties of samples at pH 4.0 (prepared as described in example 1) were evaluated by preparing emulsions containing 10% (w/w) of “high oleic” sunflower oil (Oleifico SABO, Manno, Switzerland). Samples with SIN to BLG molar ratio 10 with or without heat treatment were diluted to 0.25 mM BLG and mixed with oil in a Pyrex® tube (D 25 mm, V 35 mL) to a final weight of 20 g. They were pre-homogenized using an Ultra Turrax® T25 equipped with a S25N-10G dispersing head (IKA-Werke, Staufen, Germany) rotating at 16,000 rpm for 1 minute. Homogenization of emulsions was completed using an ultrasonic processor (Hielscher UP400S, power 400 W, frequency 24 kHz) and a sonotrode (diameter 7 mm, approx. length 100 mm, titanium) at room temperature for 75 seconds and 75% amplitude of the ultrasound maximal power. This emulsification time was enough to disperse the oil in small droplets and to avoid excessive heating of the sample. […] Stability of emulsions to creaming and flocculation was followed over 26 days of storage at 4° C."}, "β-lactoglobulin (BLG)": {"target": "T1, β-lactoglobulin (BLG) (Bos taurus, UniProt P02754)", "T1 construct": "The composition in the major whey protein fraction was 89.22% BLG; purchased Davisco Biopure, lot JE 001-3-922", "T1 sequence (P02754 17-178)": "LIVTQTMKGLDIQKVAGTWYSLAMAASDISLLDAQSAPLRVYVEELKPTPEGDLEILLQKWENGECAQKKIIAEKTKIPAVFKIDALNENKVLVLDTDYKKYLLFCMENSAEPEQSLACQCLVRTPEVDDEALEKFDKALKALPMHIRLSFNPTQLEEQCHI", "assay": "Binding curve of sinigrin to β-lactoglobulin (ultrafiltration, SEC of free SIN)", "design": "species or system bovine", "conditions": "for number of maximum binding sites (nmax): SIN to BLG, acidic conditions (pH 4.0), 25° C.", "method": "β-Lactoglobulin (BLG) powder was dispersed in Millipore® water by stirring at room temperature for 1 hour. The protein powder was purchased from Davisco (Biopure, lot JE 001-3-922). The protein content was 93.5 g/100 g of powder, as determined by Kjeldahl analysis (N×6.38). The composition in the major whey protein fraction was 89.22% BLG, 6.91% […], 3.87% bovine serum albumin, as determined by reversed phase HPLC(RP-HPLC); 0.2% fat, 1.5% ash and 4.9% moisture, as specified by the supplier. The mineral composition was as follows: 0.87% Na^+, <0.004% K^+, <0.04% Cl^−, 0.019% Ca^2+, 0.053% P, 0.002% Mg^2+, as determined by atomic absorption spectroscopy.\nConcentration of the BLG in the protein solution was 1 mM (1.84% w/w). It was stored overnight at 4° C. to allow hydration. The next day, the protein dispersion was filtered using a Stericup filtration system (Millipore®) with 0.22 μm GP Express Plus membrane. The filtered dispersion (pH 7.2) was either used directly for sample preparation, or it was previously acidified to pH 4.0 using 1M HCl. The amount of 1M HCl added in the latter case was about 1% of the total volume.\nThe glucosinolate solution was prepared on the day of the experiment by dissolving sinigrin (SIN) in Millipore® water to obtain a concentration 20 or 40 mM (0.83. or 1.66% w/w). Sinigrin hydrate (allyl glucosinolate) 99%, was purchased from Sigma (lot 1291054). For the experiments under acidic conditions, SIN solution was acidified to pH 4.0. The amount of 1M HCl added in the latter case was about 1% of the total volume. […]\nAfter incubation, 2×1.5 mL of mixtures were centrifuged using Centrisart® I centrifugal ultrafiltration units with cellulose triacetate ultrafilters having molecular weight cut-off of 10 kDa (Sartorious, Germany) in a Sorvall RC 3C PLUS centrifuge with a swing bucket rotor (Thermo, Switzerland), for 30 min at 2900×g. Ultrafiltrates were collected, diluted 10 times in Millipore® water, and then analyzed by size exclusion HPLC (SEC) to determine the amount of free (unbound) SIN in each sample. […]"}},
  "data": [
    {"smiles": "C=CC/C(=N\\OS(=O)(=O)[O-])S[C@@H]1O[C@H](CO)[C@@H](O)[C@H](O)[C@H]1O.O.[K+]", "note": "[SIN, Sinigrin hydrate (allyl glucosinolate)]", "values": [
      {"measurement": "ability to produce a stable oil/water emulsion", "setting": "[1]", "result": "not able to produce a stable oil/water emulsion"},
      {"measurement": "number of maximum binding sites (nmax)", "setting": "β-lactoglobulin (BLG); with heat treatment (85° C., 15 min)", "result": 8.71},
      {"measurement": "number of maximum binding sites (nmax)", "setting": "β-lactoglobulin (BLG); without heat treatment", "result": 15.4},
      {"measurement": "amount of bound SIN to BLG", "setting": "β-lactoglobulin (BLG); pH 4.0 compared to 7.2", "result": "much higher at pH 4.0 compared to 7.2"}
    ]}
  ]
}
